Results as given in ChEMBL document CHEMBL1201862, “PubChem BioAssay data set” (2004).
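1) Cells in 96-well plates. 2) Compound, 48 h, 5 concentrations. 3) Linear interpolation between surrounding doses. 4) Unreached endpoint = highest concentration. The concentration for 50% growth inhibition is given as GI50.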 The source made the active and inactive calls. No stated cut-off is given here; in the data, active = GI50 up to about 1.1 µM and inactive = higher.

Key:
Assay in all cases: growth of human tumour cells (NCI), 48 h
[1] = tested on: SF-539
[2] = tested on: HCT-15
[3] = tested on: EKVX
[4] = tested on: HOP-92
[5] = tested on: NCI/ADR-RES
[6] = tested on: Malme-3M
[7] = tested on: SK-MEL-5
[8] = tested on: OVCAR-5
[9] = tested on: MDA-MB-435
[10] = tested on: HL-60
[11] = tested on: A498
[12] = tested on: SNB-75
[13] = tested on: OVCAR-4
[14] = tested on: RXF 393
[15] = tested on: DU-145
[16] = tested on: SK-MEL-2
[17] = tested on: CAKI-1
[18] = tested on: NCI-H522
[19] = tested on: RPMI-8226
[20] = tested on: A549

Row | Structure (SMILES) | GI50 [1] | GI50 [2] | GI50 [3] | GI50 [4] | GI50 [5] | GI50 [6] | GI50 [7] | GI50 [8] | GI50 [9] | GI50 [10] | GI50 [11] | GI50 [12] | GI50 [13] | GI50 [14] | GI50 [15] | GI50 [16] | GI50 [17] | GI50 [18] | GI50 [19] | GI50 [20]
1 | CC(O)CCC(=O)c1ccoc1 (configuration not stated) | 9930 µM (inactive) | 7660 µM | 6080 µM (inactive) | 2490 µM (inactive) | 4990 µM (inactive) | 6820 µM (inactive) | 4560 µM (inactive) | 7820 µM (inactive) | > 10000 µM (inactive) | 3350 µM (inactive) | 3820 µM (inactive) | 3500 µM (inactive) | 5110 µM (inactive) | 4850 µM (inactive) | 8200 µM (inactive) | 7710 µM (inactive) | 2730 µM (inactive) | 3680 µM (inactive) | 3740 µM (inactive) | 3940 µM (inactive)
2 | C=C(C=O)c1c2c(nc3ccccc13)C(=O)c1ccccc1C2=O | 0.673 µM (active) | 0.298 µM | 1.19 µM (inactive) | 1.67 µM (inactive) | 0.265 µM (active) | 1.42 µM (inactive) | 0.162 µM (active) | 1.9 µM (inactive) | 0.273 µM (active) | 0.31 µM (active) | 1.46 µM (inactive) | 1.14 µM (inactive) | 1.77 µM (inactive) | 0.304 µM (active) | 0.286 µM (active) | 1.37 µM (inactive) | 0.52 µM (active) | 0.366 µM (active) | 0.296 µM (active) | 1.86 µM (inactive)
3 | COC(=O)[C@@H](Cc1ccccc1)N1O[C@]12CCCC[C@@H]2NC(=O)OC(C)(C)C (some centres not stated) | 19.2 µM (inactive) | 18.4 µM | 27.9 µM (inactive) | 21.3 µM (inactive) | 23.1 µM (inactive) | 22.1 µM (inactive) | 19.5 µM (inactive) | 25.1 µM (inactive) | 25.8 µM (inactive) |  | 41.8 µM (inactive) | 30.4 µM (inactive) | 31.6 µM (inactive) | 25 µM (inactive) | 29.4 µM (inactive) | 20.4 µM (inactive) | 35.8 µM (inactive) | 16.7 µM (inactive) | 44.5 µM (inactive) | 29.2 µM (inactive)
4 | CC(C)(Br)C(Br)CC/C(=C/CBr)CBr.CC(C)(Br)C(Br)CC/C(=C\CBr)CBr (configuration not stated) | 4.66 µM (inactive) | 2.51 µM | 25.3 µM (inactive) | 4.33 µM (inactive) | 3.11 µM (inactive) | 3.85 µM (inactive) | 4.5 µM (inactive) | 18.6 µM (inactive) | 3.69 µM (inactive) | 0.553 µM (active) | 20.9 µM (inactive) | 3.98 µM (inactive) | 5.2 µM (inactive) | 2.22 µM (inactive) | 10.5 µM (inactive) | 3.19 µM (inactive) | 9.91 µM (inactive) | 1.66 µM (inactive) | 1.47 µM (inactive) | 13.9 µM (inactive)
5 | CC(=O)N1c2ccccc2C23CCN(C)CC4C(C)OCC(C4CC2=O)C13 (configuration not stated) | > 100 µM (inactive) | > 100 µM | > 100 µM (inactive) | > 100 µM (inactive) | > 100 µM (inactive) | > 100 µM (inactive) | > 100 µM (inactive) | > 100 µM (inactive) | > 100 µM (inactive) | > 100 µM (inactive) | > 100 µM (inactive) | > 100 µM (inactive) | > 100 µM (inactive) | > 100 µM (inactive) | > 100 µM (inactive) | > 100 µM (inactive) | > 100 µM (inactive) | > 100 µM (inactive) |  | > 100 µM (inactive)
6 | O=C(/C=C/c1ccc(OCc2ccccc2)cc1)NCc1ccc(C(=O)NCc2ccccc2)cc1 | > 100 µM (inactive) | > 100 µM | > 100 µM (inactive) | > 100 µM (inactive) | > 100 µM (inactive) | > 100 µM (inactive) | > 100 µM (inactive) | > 100 µM (inactive) | > 100 µM (inactive) |  | > 100 µM (inactive) | 36.6 µM (inactive) | > 100 µM (inactive) | 0.687 µM (active) | > 100 µM (inactive) | > 100 µM (inactive) | > 100 µM (inactive) | > 100 µM (inactive) | > 100 µM (inactive) | > 100 µM (inactive)
7 | FC(F)(F)c1ccccc1C1SCC2=Nc3ccccc3CN21 (configuration not stated) | 10.8 µM (inactive) | 14.1 µM | 12 µM (inactive) | 17 µM (inactive) | 18.3 µM (inactive) |  | 14.7 µM (inactive) | 12 µM (inactive) | 22.5 µM (inactive) | 21.3 µM (inactive) | 17.1 µM (inactive) | 14 µM (inactive) | 15.4 µM (inactive) | 10.2 µM (inactive) | 12.8 µM (inactive) |  | 24.9 µM (inactive) |  | 24.8 µM (inactive) | 14.5 µM (inactive)
8 | O=C1C=CC2(O[C@H](C3CCCCC3)[C@@H](C3CCCCC3)O2)C(SC(=O)c2ccccc2)C1 (some centres not stated) | 2.88 µM (inactive) | 3.21 µM | 6.1 µM (inactive) | 8.39 µM (inactive) | 1.43 µM (inactive) | 3.66 µM (inactive) | 1.77 µM (inactive) | 1.88 µM (inactive) | 1.62 µM (inactive) | 1.79 µM (inactive) | 8.41 µM (inactive) | 7.24 µM (inactive) | 1.25 µM (inactive) | 1.01 µM (active) | 2.44 µM (inactive) | 4.21 µM (inactive) |  | 1.04 µM (active) | 0.968 µM (active) | 6.07 µM (inactive)
9 | CC(C)C(=O)Oc1cc2c(=O)oc3c(OC(=O)C(C)C)c(OC(=O)C(C)C)cc4c(=O)oc(c1OC(=O)C(C)C)c2c34 | > 100 µM (inactive) | > 100 µM | > 100 µM (inactive) | > 100 µM (inactive) | > 100 µM (inactive) | > 100 µM (inactive) | > 100 µM (inactive) | > 100 µM (inactive) | > 100 µM (inactive) |  | > 100 µM (inactive) | > 100 µM (inactive) | > 100 µM (inactive) | > 100 µM (inactive) | > 100 µM (inactive) |  | > 100 µM (inactive) | > 100 µM (inactive) | > 100 µM (inactive) | > 100 µM (inactive)
10 | COc1cc(NC=C2C(=O)OC(C)(C)OC2=O)c(OC)c(C)c1OC | > 100 µM (inactive) | > 100 µM | > 100 µM (inactive) | > 100 µM (inactive) | > 100 µM (inactive) | > 65.2 µM (inactive) | > 100 µM (inactive) | > 100 µM (inactive) | > 100 µM (inactive) | > 100 µM (inactive) | > 100 µM (inactive) | > 88.3 µM (inactive) | > 74 µM (inactive) | > 100 µM (inactive) | > 100 µM (inactive) | > 100 µM (inactive) | > 83.4 µM (inactive) | > 100 µM (inactive) | > 100 µM (inactive) | > 100 µM (inactive)
11 | c1ccc(CNc2ncnc3nn[nH]c23)cc1 | > 100 µM (inactive) | > 100 µM | > 100 µM (inactive) | 56.8 µM (inactive) | > 100 µM (inactive) | > 100 µM (inactive) | > 100 µM (inactive) | > 100 µM (inactive) | > 100 µM (inactive) | > 100 µM (inactive) | 34 µM (inactive) | > 100 µM (inactive) | > 100 µM (inactive) | > 100 µM (inactive) | > 100 µM (inactive) | > 100 µM (inactive) | > 100 µM (inactive) | > 100 µM (inactive) |  | > 100 µM (inactive)
12 | OC[C@H]1C[C@@H]2Cc3ccccc3N2N1 | > 100 µM (inactive) | > 100 µM | > 100 µM (inactive) | > 100 µM (inactive) | > 100 µM (inactive) | > 100 µM (inactive) | > 100 µM (inactive) | > 100 µM (inactive) | > 100 µM (inactive) | > 100 µM (inactive) | > 100 µM (inactive) | > 100 µM (inactive) | > 100 µM (inactive) | > 100 µM (inactive) | > 100 µM (inactive) | > 100 µM (inactive) | > 100 µM (inactive) | > 100 µM (inactive) |  | > 100 µM (inactive)
13 | OCC12C3C4C5C3C1C5C42 (configuration not stated) | > 100 µM (inactive) | > 100 µM | > 100 µM (inactive) | > 100 µM (inactive) | > 100 µM (inactive) | > 100 µM (inactive) | > 100 µM (inactive) | > 100 µM (inactive) | > 100 µM (inactive) | > 100 µM (inactive) | > 100 µM (inactive) | > 100 µM (inactive) | > 100 µM (inactive) | > 100 µM (inactive) | > 100 µM (inactive) | > 100 µM (inactive) | > 100 µM (inactive) | > 100 µM (inactive) |  | > 100 µM (inactive)
14 | COc1cc(N(CCC#N)CCC#N)ccc1/C=C1\SC(=S)NC1=O | > 100 µM (inactive) | > 100 µM | > 100 µM (inactive) | > 100 µM (inactive) | > 100 µM (inactive) | > 100 µM (inactive) | > 100 µM (inactive) | > 100 µM (inactive) | > 100 µM (inactive) | > 100 µM (inactive) | > 100 µM (inactive) | > 100 µM (inactive) | > 100 µM (inactive) | > 100 µM (inactive) | > 100 µM (inactive) | > 100 µM (inactive) | > 100 µM (inactive) | > 100 µM (inactive) | > 100 µM (inactive) | > 100 µM (inactive)
15 | Cc1c(S(=O)(=O)O)ccc(/N=N/c2c(O)c(C(=O)O)cc3ccccc23)c1Cl |  | > 100 µM | > 100 µM (inactive) | > 100 µM (inactive) | > 100 µM (inactive) | > 63.5 µM (inactive) | > 100 µM (inactive) | > 100 µM (inactive) | > 100 µM (inactive) | > 100 µM (inactive) | > 100 µM (inactive) | > 100 µM (inactive) | > 100 µM (inactive) | > 100 µM (inactive) | > 100 µM (inactive) | > 100 µM (inactive) | > 86.5 µM (inactive) | > 100 µM (inactive) | > 100 µM (inactive) | > 100 µM (inactive)
